Source: patent publication US4054669A, “Phenolic menthene derivatives, therapeutic composition containing same and their use as therapeutic compositions” (Les Derives Resiniques et Terpeniques, priority 1975, dated 1977)
Values after ≈ are worked out from the molar mass of the structure shown.

Experiments:
[1] = Sensitivity to light and air; assay type: physicochemical
[2] = Acute toxicity, Karber and Behrens method, female IFFA-CREDO mice; settings: mouse, in vivo
Procedure: Acute toxicity was determined by the intravenous and oral routes, using the Karber and Behrens method, in mice female IFFA-CREDO weighing 20 g (10 mice per dosage level).

[3] = system: Staphylococcus pyogenes aureus Oxford; assay: Antibacterial activity, dilution method: Staphylococcus pyogenes aureus Oxford; assay type: cell-based; settings: Difco bacto-peptone medium
Procedure: (§1) The tests were carried out according to the dilution method.
(§2) To determine the activity against Staphylococcus, Proteus vulgaris, Klebsiella pneumoniae and Escherichia coli, use was made of Difco bacto-peptone medium, and nutrient broth T was used to investigate the activity against Pneumococcus.

[4] = system: Streptococcus pyrogenes 5625; assay: Antibacterial activity, dilution method: Streptococcus pyrogenes 5625; assay type: cell-based
Procedure: as §1, §2

[5] = system: Diplococcus pneumoniae 692; assay: Antibacterial activity, dilution method: Diplococcus pneumoniae 692; assay type: cell-based; settings: for MIC: Streptococcus pneumoniae, 692, nutrient broth T
Procedure: as §1, §2

Proteus vulgaris = assay: Antibacterial activity, dilution method: Proteus vulgaris; assay type: cell-based; settings: Difco bacto-peptone medium
Procedure: as §1, §2

Klebsiella pneumoniae = assay: Antibacterial activity, dilution method: Klebsiella pneumoniae; assay type: cell-based; settings: Difco bacto-peptone medium
Procedure: as §1, §2

Escherichia coli = assay: Antibacterial activity, dilution method: Escherichia coli; assay type: cell-based; settings: Difco bacto-peptone medium
Procedure: as §1, §2

gram-positive germs = assay: Antibacterial activity, dilution method: gram-positive germs (summary); assay type: cell-based; settings: in words
Procedure: as §1, §2

[6] = Solubility in physiological saline solution; assay type: physicochemical

CC1CC=C(c2ccc(O)cc2)C(C(C)C)C1 (stereo not shown) [m.menthene-phenol, 4-(3'-m.menthen-4'-yl)-phenol]
sensitivity to light and air [1]: highly sensitive to light and air

Cc1c(C2=CCC(C)CC2C(C)C)cc(C(C)C)c(O)c1S(=O)(=O)O (stereo not shown) [LJ 2128, m.menthene-thymol-2-sulfonate]
LD50 ([2]; iv): 125 mg/kg
LD50 ([2]; po): 1920 mg/kg
MIC [3]: 140 µg/mL (≈ 382 µM)
MIC [4]: 16 µg/mL (≈ 43.7 µM)
MIC [5]: 12 µg/mL (≈ 32.7 µM)
MIC (Proteus vulgaris): > 1000 µg/mL
MIC (Klebsiella pneumoniae): > 1000 µg/mL
MIC (Escherichia coli): > 1000 µg/mL
activity against gram-positive germs (gram-positive germs): active against gram-positive germs
solubility in physiological saline solution [6]: soluble in physiological saline solution, giving a clear solution

CC1CC=C(c2ccc(O)c(S(=O)(=O)O)c2)C(C(C)C)C1 (stereo not shown) [LJ 2148, sodium m.menthene-phenol-2-sulfonate]
LD50 ([2]; iv): 305 mg/kg
LD50 ([2]; po): 2900 mg/kg
MIC [3]: 28 µg/mL
MIC [4]: 10 µg/mL
MIC [5]: 3 µg/mL
activity against Diplococcus pneumoniae ([5]; in words): particularly active against Diplococcus pneumoniae
MIC (Proteus vulgaris): > 1000 µg/mL
MIC (Klebsiella pneumoniae): > 1000 µg/mL
MIC (Escherichia coli): > 1000 µg/mL
activity against gram-positive germs (gram-positive germs): active against gram-positive germs
solubility in physiological saline solution [6]: soluble in physiological saline solution
